Measured values reported in the supplement of paper PMC10331698.
± gives the standard deviation of the averaged measurements.

Legend:
Experiment in all cases: level (log10 ratio to DMSO vehicle control); higher = higher biomarker level / cell amount than vehicle control
Methotrexate = compound: CN(Cc1cnc2nc(N)nc(N)c2n1)c1ccc(C(=O)N[C@@H](CCC(=O)O)C(=O)O)cc1 [Methotrexate]; conditions: in DMSO
Procedure: (§1)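 BioMAP Diversity Plus panel of 12 human primary cell co-culture systems (3C, 4H, LPS, SAg, BT, BF4T, BE3C, CASM3C, HDF3CGF, KF3CT, MyoF, Mphg). Compounds were added 1 h before stimulation and left for 24 h (MyoF 48 h; BT 72 h for soluble read-outs or 6 d for IgG). Biomarkers were read by ELISA, cytotoxicity by SRB, PBMC viability and proliferation by Alamar Blue. Each well value was divided by the mean of 8 DMSO control wells on the same plate and log10 transformed; duplicate blinded samples were tested at 4 concentrations.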

[1] = compound: O=S(=O)(OCC(F)(F)F)C(F)(F)C(F)(F)C(F)(F)C(F)(F)F [2,2,2-Trifluoroethyl perfluorobutanesulfonate]; conditions: in DMSO
Procedure: as §1

Tetrafluorosuccinic acid = compound: O=C(O)C(F)(F)C(F)(F)C(=O)O [Tetrafluorosuccinic acid]; conditions: in DMSO
Procedure: as §1

[2] = compound: O=C(CC(=O)C(F)(F)C(F)(F)C(F)(F)F)c1cccs1 [(Perfluorobutyryl)-2-thenoylmethane]; conditions: in DMSO
Procedure: as §1

[3] = compound: OCCC(F)(F)C(F)(F)C(F)(F)C(F)(F)C(F)(F)C(F)(F)C(F)(F)C(F)(F)F [8:2 Fluorotelomer alcohol]; conditions: 6700 nM; in DMSO
Procedure: as §1

[4] = compound: C=CC(=O)OCC(F)(F)C(F)(F)C(F)(F)C(F)(F)COC(=O)C=C [1H,1H,6H,6H-Perfluorohexane-1,6-diol diacrylate]; conditions: 6700 nM; in DMSO
Procedure: as §1

Perfluoropinacol = compound: OC(C(F)(F)F)(C(F)(F)F)C(O)(C(F)(F)F)C(F)(F)F [Perfluoropinacol]; conditions: in DMSO
Procedure: as §1

[5] = compound: FC(F)(I)C(F)(F)C(F)(F)C(F)(F)C(F)(F)C(F)(F)I [1,6-Diiodoperfluorohexane]; conditions: 6700 nM; in DMSO
Procedure: as §1

[6] = compound: FC(F)(F)COC(OCC(F)(F)F)OCC(F)(F)F [tris(Trifluoroethoxy)methane]; conditions: in DMSO
Procedure: as §1

| Test System | level (log10) (Methotrexate; 1500 nM) | level (log10) (Methotrexate; 4400 nM) | level (log10) (Methotrexate; 13000 nM) | level (log10) (Methotrexate; 40000 nM) | level (log10) ([1]; 6700 nM) | level (log10) ([1]; 20000 nM) | level (log10) ([1]; 60000 nM) | level (log10) (Tetrafluorosuccinic acid; 6700 nM) | level (log10) (Tetrafluorosuccinic acid; 20000 nM) | level (log10) (Tetrafluorosuccinic acid; 60000 nM) | level (log10) ([2]; 6700 nM) | level (log10) ([2]; 20000 nM) | level (log10) [3] | level (log10) [4] | level (log10) (Perfluoropinacol; 6700 nM) | level (log10) (Perfluoropinacol; 20000 nM) | level (log10) [5] | level (log10) ([6]; 6700 nM) | level (log10) ([6]; 20000 nM) | level (log10) ([6]; 60000 nM) |
| --- | --- | --- | --- | --- | --- | --- | --- | --- | --- | --- | --- | --- | --- | --- | --- | --- | --- | --- | --- | --- |
| 3C:CD87/uPAR | 0.0005 ± 0.0092 | 0.001 ± 0.047 | 0.01 ± 0.071 | -0.0095 ± 0.013 | 0.0115 ± 0.023 | -0.014 ± 0.035 | -0.139 ± 0.099 | -0.022 ± 0.024 | -0.0085 ± 0.0078 | -0.019 ± 0.033 | -0.148 ± 0.033 | -0.07 ± 0.03 | 0.008 ± 0.018 | 0.0105 ± 0.029 | -0.159 ± 0.04 | -0.29 ± 0.022 | -0.022 | -0.0515 ± 0.063 | -0.032 ± 0.027 | -0.018 ± 0.04 |
| 3C:CXCL8/IL-8 | 0.035 ± 0.016 | -0.0015 ± 0.059 | 0.0055 ± 0.023 | 0.042 ± 0.093 | 0.0105 ± 0.012 | 0.014 ± 0.024 | 0.064 ± 0.071 | -0.0265 ± 0.015 | -0.0235 ± 0.012 | -0.0005 ± 0.049 | -0.112 ± 0.0035 | -0.091 ± 0.014 | -0.003 ± 0.034 | 0.017 ± 0.024 | 0.0215 ± 0.012 | -0.0255 ± 0.026 | -0.008 | -0.007 ± 0.016 | -0.0085 ± 0.005 | 0.003 ± 0.013 |
| 3C:CXCL9/MIG | 0.0075 ± 0.0092 | 0.001 ± 0.016 | -0.0015 ± 0.005 | 0.0145 ± 0.0064 | 0.0075 ± 0.043 | 0.0045 ± 0.026 | 0.0025 ± 0.022 | 0.0025 ± 0.015 | -0.0145 ± 0.012 | 0.0035 ± 0.028 | -0.0205 ± 0.012 | -0.0255 ± 0.0021 | -0.015 ± 0.0071 | 0.002 ± 0.0042 | -0.005 ± 0.013 | -0.014 ± 0.0085 | -0.002 | -0.01 ± 0.018 | -0.008 ± 0.0057 | -0.0115 ± 0.0035 |
| 3C:HLA-DR | -0.014 ± 0.031 | -0.012 ± 0.038 | -0.013 ± 0.025 | -0.011 ± 0.03 | -0.01 ± 0.011 | -0.0135 ± 0.0092 | -0.032 ± 0.0014 | 0.0005 ± 0.025 | -0.0075 ± 0.0021 | -0.0045 ± 0.032 | -0.093 ± 0.045 | -0.511 ± 0.026 | -0.0245 ± 0.018 | -0.025 ± 0.011 | -0.0405 ± 0.0035 | -0.132 ± 0.028 | -0.005 | 0.014 ± 0.013 | 0.0065 ± 0.012 | 0.0205 ± 0.0035 |
| 3C:Proliferation | 0.0185 ± 0.056 | 0.0495 ± 0.013 | 0.0285 ± 0.019 | -0.086 ± 0.04 | 0.002 ± 0.062 | -0.025 ± 0.04 | -0.0475 ± 0.028 | -0.0155 ± 0.028 | -0.01 ± 0.0014 | -0.0265 ± 0.021 | -0.276 ± 0.04 | -0.891 ± 0.063 | -0.0465 ± 0.005 | -0.307 ± 0.084 | -0.151 ± 0.0028 | -0.441 ± 0.086 | -0.102 | -0.013 ± 0.061 | -0.001 ± 0.037 | 0.0035 ± 0.03 |
| 3C:SRB | 0.0055 ± 0.0035 | 0 ± 0.017 | 0.011 ± 0.028 | -0.0155 ± 0.0021 | -0.0135 ± 0.0021 | -0.014 ± 0.0028 | -0.0295 ± 0.012 | -0.0065 ± 0.011 | -0.0135 ± 0.0078 | -0.021 ± 0.017 | -0.0035 ± 0.028 | -0.139 ± 0.021 | -0.014 ± 0.0099 | -0.0015 ± 0.028 | -0.0665 ± 0.013 | -0.188 ± 0.0028 | 0.03 | -0.02 | -0.0035 ± 0.00071 | -0.006 ± 0.02 |
| 4H:CCL2/MCP-1 | -0.02 ± 0.011 | -0.035 ± 0.02 | -0.0215 ± 0.023 | 0.0105 ± 0.0021 | -0.0345 ± 0.015 | -0.046 ± 0.0014 | -0.0385 ± 0.021 | -0.037 ± 0.021 | -0.04 ± 0.028 | -0.0055 ± 0.086 | -0.0825 ± 0.0078 | -0.249 ± 0.0042 | -0.012 ± 0.014 | -0.0235 ± 0.019 | -0.058 ± 0.023 | -0.168 ± 0.025 | -0.03 | -0.017 ± 0.017 | -0.017 ± 0.018 | 0.031 ± 0.054 |
| 4H:CCL26/Eotaxin-3 | -0.018 ± 0.0085 | -0.008 ± 0.011 | 0.014 ± 0.021 | -0.002 ± 0.014 | 0.0025 ± 0.064 | 0.01 ± 0.054 | -0.0095 ± 0.074 | 0.0025 ± 0.049 | -0.037 ± 0.064 | 0.0315 ± 0.018 | -0.041 ± 0.0057 | -0.241 ± 0.016 | 0.017 ± 0.054 | -0.0435 ± 0.005 | -0.03 ± 0.048 | -0.179 ± 0.037 | -0.037 | 0.018 ± 0.047 | 0.0235 ± 0.043 | 0.0415 ± 0.0078 |
| 4H:CD62P/P-selectin | -0.019 ± 0.0028 | -0.0195 ± 0.032 | -0.0045 ± 0.086 | -0.0055 ± 0.073 | -0.0365 ± 0.016 | -0.034 ± 0.0085 | -0.0525 ± 0.015 | 0.001 ± 0.017 | -0.011 ± 0.0042 | -0.0005 ± 0.015 | -0.0205 ± 0.037 | -0.41 ± 0.032 | -0.0615 ± 0.0064 | -0.104 ± 0.026 | -0.0165 ± 0.022 | -0.217 ± 0.06 | -0.001 | -0.0215 ± 0.064 | 0.011 ± 0.088 | -0.0135 ± 0.053 |
| 4H:CD87/uPAR | 0.0245 ± 0.029 | -0.014 ± 0.031 | -0.0105 ± 0.033 | 0.0185 ± 0.03 | 0.0005 ± 0.011 | 0.001 ± 0.0099 | -0.0095 ± 0.039 | -0.0355 ± 0.025 | -0.043 ± 0.035 | -0.036 ± 0.089 | -0.006 ± 0.024 | 0.033 ± 0.0071 | -0.069 ± 0.025 | -0.04 ± 0.027 | -0.117 ± 0.022 | -0.226 ± 0.029 | -0.009 | 0.0405 ± 0.07 | 0.0305 ± 0.052 | 0.0185 ± 0.064 |
| 4H:CD106/VCAM-1 | -0.0045 ± 0.018 | -0.0095 ± 0.0021 | 0.005 ± 0.028 | -0.0005 ± 0.011 | -0.004 ± 0.025 | -0.008 ± 0.014 | 0.0015 ± 0.0021 | 0.029 ± 0.033 | 0.0065 ± 0.005 | 0.0485 ± 0.018 | -0.009 ± 0.0071 | -0.234 ± 0.04 | -0.008 ± 0.013 | -0.057 ± 0.0057 | -0.043 ± 0.018 | -0.22 ± 0.02 | -0.052 | -0.0145 ± 0.0035 | -0.0025 ± 0.0078 | -0.009 ± 0.0071 |
| 4H:SRB | 0.0105 ± 0.0078 | -0.0075 ± 0.011 | 0.0035 ± 0.00071 | 0.007 ± 0.0014 | -0.0025 ± 0.00071 | -0.0085 ± 0.011 | -0.0015 ± 0.023 | -0.0005 ± 0.023 | 0.001 ± 0.0085 | -0.0185 ± 0.011 | -0.0255 ± 0.00071 | -0.136 ± 0.0021 | -0.014 ± 0.0042 | -0.0075 ± 0.0035 | -0.0345 ± 0.015 | -0.13 ± 0.0078 | 0.009 | -0.0055 ± 0.0021 | -0.004 ± 0.0042 | -0.011 ± 0.017 |
| 4H:VEGFR2 | -0.0035 ± 0.04 | -0.028 ± 0.035 | -0.014 ± 0.017 | 0.022 ± 0.0057 | -0.0285 ± 0.03 | 0.0005 ± 0.019 | 0.025 ± 0.0014 | -0.032 ± 0.014 | -0.027 | 0.007 ± 0.11 | -0.0915 ± 0.0078 | -0.172 ± 0.064 | 0.0185 ± 0.0064 | -0.0605 ± 0.00071 | -0.02 ± 0.023 | -0.138 ± 0.064 | -0.002 | -0.0045 ± 0.023 | 0.006 ± 0.017 | 0.006 ± 0.021 |
| BE3C:CD54/ICAM-1 | 0.021 ± 0.014 | -0.002 ± 0.013 | 0.013 ± 0.031 | 0.0065 ± 0.035 | -0.002 ± 0.0071 | -0.013 ± 0.0071 | -0.018 ± 0.0057 | 0.0015 ± 0.025 | 0.0065 ± 0.00071 | 0.0115 ± 0.00071 | -0.0075 ± 0.0064 | -0.102 ± 0.0064 | 0.001 ± 0.0099 | -0.021 ± 0.024 | -0.003 ± 0.0085 | -0.0095 ± 0.0035 | 0.001 | 0.016 ± 0.027 | 0.006 ± 0.0099 | 0.0075 ± 0.0092 |
